19 molecules from patent US5707798A, “Identification of ligands by selective amplification of cells transfected with receptors” (priority 1994, dated 1998) can be followed below.

Like-named read-outs stand apart in the source and are kept apart here. Ends that are not written are not given here.

The test system of one experiment is NIH 3T3 cells. The experiment can be described thus: Amplification response in the absence of the indicated target receptor. Format: cell-based, mouse. The settings on record: absence of the ligand's target receptor. As to the method: FIG. 16 illustrates the maximal ligand-induced responses of the indicated receptors, as assayed using cotransfected cultures using a Multiple Receptor Format similar to that described in FIG. 11. […] Cells were incubated in wells of a 96 well plate for 4 days with each ligand. Maximal responses were calculated by fitting the data to a model of a single mass-action site.

The target in experiment [1] is T1, m5 muscarinic receptor (Homo sapiens, UniProt P08912).
T1 construct: expressed in transfected cells; host or cells: NIH 3T3 (mouse fibroblasts)
T1 sequence (P08912 1-532): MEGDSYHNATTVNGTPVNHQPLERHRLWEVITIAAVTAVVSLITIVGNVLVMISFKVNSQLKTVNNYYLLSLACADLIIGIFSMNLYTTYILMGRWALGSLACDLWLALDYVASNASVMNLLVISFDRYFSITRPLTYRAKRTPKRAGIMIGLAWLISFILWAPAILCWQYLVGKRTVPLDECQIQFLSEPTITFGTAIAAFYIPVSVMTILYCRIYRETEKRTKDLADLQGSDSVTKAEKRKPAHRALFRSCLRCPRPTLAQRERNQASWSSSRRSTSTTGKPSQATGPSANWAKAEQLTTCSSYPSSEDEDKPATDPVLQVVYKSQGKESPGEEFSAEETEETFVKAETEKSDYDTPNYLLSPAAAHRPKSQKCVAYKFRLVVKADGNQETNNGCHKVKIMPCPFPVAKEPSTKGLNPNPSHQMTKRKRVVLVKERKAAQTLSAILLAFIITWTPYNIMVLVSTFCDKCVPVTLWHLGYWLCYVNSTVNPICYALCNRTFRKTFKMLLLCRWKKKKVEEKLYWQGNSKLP
The class given is cell-based. The settings on record: read-out: negative log Ki (converted).

Experiment [2] concerns the target T2, m1 muscarinic receptor (Homo sapiens, UniProt P11229).
T2 sequence (P11229 1-460): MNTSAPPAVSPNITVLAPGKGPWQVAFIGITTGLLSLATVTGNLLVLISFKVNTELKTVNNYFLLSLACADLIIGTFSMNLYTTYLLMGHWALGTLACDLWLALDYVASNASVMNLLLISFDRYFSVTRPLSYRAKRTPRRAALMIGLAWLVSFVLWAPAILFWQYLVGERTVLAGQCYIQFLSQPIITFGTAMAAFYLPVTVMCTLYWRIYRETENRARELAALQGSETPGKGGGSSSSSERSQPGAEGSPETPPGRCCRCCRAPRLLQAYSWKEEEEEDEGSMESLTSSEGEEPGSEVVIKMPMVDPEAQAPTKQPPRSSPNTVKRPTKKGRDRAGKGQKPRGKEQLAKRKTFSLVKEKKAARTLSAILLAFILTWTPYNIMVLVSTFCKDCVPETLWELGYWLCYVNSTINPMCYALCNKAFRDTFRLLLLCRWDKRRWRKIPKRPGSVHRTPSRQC
The experiment can be described thus: cell-based.

Experiment [3] has as its target T3, alpha 2 C2 adrenergic receptor (Homo sapiens, UniProt P18089).
T3 sequence (P18089 1-450): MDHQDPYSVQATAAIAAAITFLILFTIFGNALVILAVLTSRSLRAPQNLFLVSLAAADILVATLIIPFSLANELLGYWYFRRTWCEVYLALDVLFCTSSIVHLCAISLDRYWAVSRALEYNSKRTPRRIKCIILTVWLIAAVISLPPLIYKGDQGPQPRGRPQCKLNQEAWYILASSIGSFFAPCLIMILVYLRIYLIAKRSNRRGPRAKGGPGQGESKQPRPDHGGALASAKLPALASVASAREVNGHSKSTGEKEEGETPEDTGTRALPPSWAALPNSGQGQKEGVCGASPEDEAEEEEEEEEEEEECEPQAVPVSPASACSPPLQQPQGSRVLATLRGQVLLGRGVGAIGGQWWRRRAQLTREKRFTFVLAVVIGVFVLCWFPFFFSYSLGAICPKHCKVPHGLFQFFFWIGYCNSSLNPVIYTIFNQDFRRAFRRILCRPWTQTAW
Format: cell-based.

Experiment [4] has as its target T4, alpha 2 C4 adrenergic receptor (Homo sapiens, UniProt P18825).
T4 construct: expressed in transfected cells; host or cells: NIH 3T3 (mouse fibroblasts)
T4 sequence (P18825 1-462): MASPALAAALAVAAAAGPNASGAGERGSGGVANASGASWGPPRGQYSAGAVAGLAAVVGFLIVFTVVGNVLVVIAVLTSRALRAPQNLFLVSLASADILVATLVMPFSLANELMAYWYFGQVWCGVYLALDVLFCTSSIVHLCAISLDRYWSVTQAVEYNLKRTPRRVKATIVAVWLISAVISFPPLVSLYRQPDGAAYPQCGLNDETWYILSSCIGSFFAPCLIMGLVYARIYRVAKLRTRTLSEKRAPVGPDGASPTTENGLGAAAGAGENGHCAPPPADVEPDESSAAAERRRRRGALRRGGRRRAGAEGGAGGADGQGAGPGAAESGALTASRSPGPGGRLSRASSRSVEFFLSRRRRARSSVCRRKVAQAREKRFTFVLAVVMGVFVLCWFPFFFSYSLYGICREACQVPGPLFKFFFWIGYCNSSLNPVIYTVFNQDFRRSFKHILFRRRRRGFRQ
Format: cell-based. The settings on record: α2-C4, Table 3; relative to other ligands at the receptor.

The target of experiment [5] is T2, m1 muscarinic receptor. The experiment can be described thus: cell-based. The class given is cell-based. The arrangement: expressed in transfected cells; host or cells: NIH 3T3 (mouse fibroblasts). The settings on record: for Emax: read-out: % Max.
Another experiment deals with T5, m2 muscarinic receptor (Homo sapiens, UniProt P08172).
T5 construct: expressed in transfected cells; host or cells: NIH 3T3 (mouse fibroblasts)
T5 sequence (P08172 1-466): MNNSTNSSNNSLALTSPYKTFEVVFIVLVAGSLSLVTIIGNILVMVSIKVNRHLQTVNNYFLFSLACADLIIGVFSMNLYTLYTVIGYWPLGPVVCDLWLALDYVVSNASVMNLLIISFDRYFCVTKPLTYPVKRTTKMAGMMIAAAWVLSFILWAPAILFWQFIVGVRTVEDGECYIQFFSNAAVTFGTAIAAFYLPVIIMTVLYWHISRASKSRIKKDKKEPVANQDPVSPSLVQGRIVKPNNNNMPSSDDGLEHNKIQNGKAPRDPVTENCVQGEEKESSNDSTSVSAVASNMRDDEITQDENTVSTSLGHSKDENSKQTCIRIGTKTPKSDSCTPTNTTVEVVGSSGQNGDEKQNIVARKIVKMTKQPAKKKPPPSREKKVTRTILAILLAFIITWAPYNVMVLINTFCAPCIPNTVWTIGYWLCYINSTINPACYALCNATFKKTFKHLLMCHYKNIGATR
The experiment can be described thus: cell-based. The class given is cell-based.

Experiment [6] relates to Glutamate metabatropic receptor. Format: cell-based.
Experiment [7] deals with T6, m4 muscarinic receptor (Homo sapiens, UniProt P08173).
T6 sequence (P08173 1-479): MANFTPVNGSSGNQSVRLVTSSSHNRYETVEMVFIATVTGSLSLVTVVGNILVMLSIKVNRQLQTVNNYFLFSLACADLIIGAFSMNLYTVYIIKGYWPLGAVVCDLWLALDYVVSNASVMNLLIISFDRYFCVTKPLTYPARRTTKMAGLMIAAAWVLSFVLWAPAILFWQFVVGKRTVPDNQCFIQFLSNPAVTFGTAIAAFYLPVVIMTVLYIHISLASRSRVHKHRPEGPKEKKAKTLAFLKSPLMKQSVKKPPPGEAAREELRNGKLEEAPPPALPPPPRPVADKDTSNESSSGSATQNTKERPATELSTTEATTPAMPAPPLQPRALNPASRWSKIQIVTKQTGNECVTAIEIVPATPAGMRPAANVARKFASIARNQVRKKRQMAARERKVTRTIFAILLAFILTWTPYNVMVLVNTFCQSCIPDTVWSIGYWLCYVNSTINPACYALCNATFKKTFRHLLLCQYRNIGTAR
The experiment can be described thus: cell-based.

Experiment [8] concerns the target T7, m3 muscarinic receptor (Homo sapiens, UniProt P20309). The experiment can be described thus: cell-based.
For experiment [9], the target named is T1, m5 muscarinic receptor. The class given is cell-based. The settings on record: for Emax: read-out: % Max.
Experiment [10] deals with T7, m3 muscarinic receptor. The experiment can be described thus: cell-based. The arrangement: expressed in transfected cells; host or cells: NIH 3T3 (mouse fibroblasts). The settings on record: for Emax: read-out: % Max.
Experiment [11] deals with T6, m4 muscarinic receptor. The experiment can be described thus: cell-based. The settings on record: read-out: % Max.
Experiment [12] addresses T6, m4 muscarinic receptor.
In a further experiment the target is Insulin receptor. Format: cell-based.

T7 sequence (P20309 whole entry): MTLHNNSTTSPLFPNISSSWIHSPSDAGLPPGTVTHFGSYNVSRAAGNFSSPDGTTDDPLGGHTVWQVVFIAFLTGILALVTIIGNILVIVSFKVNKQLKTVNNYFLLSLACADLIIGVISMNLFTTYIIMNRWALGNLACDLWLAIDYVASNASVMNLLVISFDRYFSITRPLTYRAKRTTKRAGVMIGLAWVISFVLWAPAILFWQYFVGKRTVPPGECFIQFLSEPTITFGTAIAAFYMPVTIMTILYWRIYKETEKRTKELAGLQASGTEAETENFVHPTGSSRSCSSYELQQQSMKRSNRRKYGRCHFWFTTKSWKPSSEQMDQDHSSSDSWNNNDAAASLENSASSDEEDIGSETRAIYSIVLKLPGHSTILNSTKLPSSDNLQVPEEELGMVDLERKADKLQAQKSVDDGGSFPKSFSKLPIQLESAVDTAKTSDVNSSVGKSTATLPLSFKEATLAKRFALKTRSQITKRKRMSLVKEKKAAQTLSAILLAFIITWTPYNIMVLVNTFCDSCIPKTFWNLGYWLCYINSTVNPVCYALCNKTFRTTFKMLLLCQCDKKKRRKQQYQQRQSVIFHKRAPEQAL

As for `O=C(O)CCC/C=C\C[C@@H]1[C@@H](/C=C/[C@@H](O)COc2cccc(C(F)(F)F)c2)[C@H](O)C[C@@H]1O` (racemic) [Fluprostenol], in the experiment with NIH 3T3 cells, the induction of responses entry is listed as “unable to induce responses”.
In the case of `C[N+]1(C)CCC(OC(=O)C(c2ccccc2)c2ccccc2)CC1` [4-DAMP], the Ki was 1 nM at m5 muscarinic receptor [1] and 2.51 nM on m1 muscarinic receptor [2].
Consider `Cc1cccc([C@H](C)c2cnc[nH]2)c1C` [Dexmedetomidine], for which the EC50 in [3] stood at 2 nM.
On to `CNC[C@H](O)c1ccc(O)c(O)c1` [Epinephrine], for which the “Max Response” value in experiment [4] is reported as “+”.
Take `C[N+](C)(C)CC#CCOC(=O)Nc1cccc(Cl)c1` [McN A-434]: the EC50 at m1 muscarinic receptor [5] (m1, Table 1A, read-out: EC50) was 1100 ± 200 nM; at m2 muscarinic receptor (m2 + Gq-i5, Table 1A, read-out: EC50) it was 1500 ± 600 nM. Also, the entries for the “% Max” value on m1 muscarinic receptor [5] (nih 3t3 cells) and at m2 muscarinic receptor (nih 3t3 cells) were 43 ± 2% and 108 ± 7%, respectively.
Take `COc1nc(C)nc(Cl)c1N=C1NCCN1` [Moxonidine]: in [4], the “Max Response” value is given as “+”.
For the molecule `Cc1cc(C(C)(C)C)c(O)c(C)c1CC1=NCCN1` [Oxymetazoline], the “Max Response” value in experiment [4] is recorded as “+”.
With `N[C@@H](Cn1oc(=O)[nH]c1=O)C(=O)O` [Quisqualate], in experiment [6] (Table 2, read-out: Ligand EC50), the EC50 came out at 2400 nM. In addition, the Rmax entry in experiment [6] (relative to other clones) is reported as “+”.
Take `C1COC(NC(C2CC2)C2CC2)=N1` [Rilmenidine]: the “Max Response” value in experiment [4] is given as “+”.
Still for that read-out and setting: next, `Brc1c(NC2=NCCN2)ccc2nccnc12` [UK 14,304]: “+”.
Consider `COc1ccccc1CNCCCCCCNCCCCCCCCNCCCCCCNCc1ccccc1OC` [methocrtramine], for which the inhibition constant (Ki) on m5 muscarinic receptor [1] was more than 1000 nM; at m4 muscarinic receptor [7] it was 398 nM; at m3 muscarinic receptor [8], more than 1000 nM; on m1 muscarinic receptor [2], 501 nM.
Regarding `C[C@@H]1O[C@H](C[N+](C)(C)C)C[C@H]1O` [muscarine], the Emax at m5 muscarinic receptor [9] stood at 86%; at m3 muscarinic receptor [10] it was 84 ± 6%; at m1 muscarinic receptor [5], 84 ± 4%; at m4 muscarinic receptor [11] it was 69 ± 2%.
In the case of `O=C1CCCN1CC#CCN1CCCC1` [oxotremorine], the EC50 on m5 muscarinic receptor [9] (m5, Table 1A, read-out: EC50) is 55 ± 1 nM; on m5 muscarinic receptor [9] (m5, Table 2, read-out: Ligand EC50), 55 ± 1 nM; on m3 muscarinic receptor [10] (read-out: EC50), 210 ± 60 nM; at m3 muscarinic receptor [10] (read-out: Ligand EC50), 210 ± 60 nM; on m1 muscarinic receptor [5] (read-out: EC50), 390 ± 130 nM; at m1 muscarinic receptor [5] (read-out: Ligand EC50) it was 390 ± 130 nM. Also, the EC50 at m2 muscarinic receptor (read-out: EC50) was 19 ± 10 nM; on m2 muscarinic receptor (read-out: Ligand EC50) it was 19 ± 10 nM; at m4 muscarinic receptor [12] it was 33 ± 14 nM; on m4 muscarinic receptor [12] (read-out: Ligand EC50), 33 ± 14 nM. The Emax at m5 muscarinic receptor [9] is 74 ± 2%; on m3 muscarinic receptor [10], 66 ± 5%; at m1 muscarinic receptor [5] it was 75 ± 10%; on m2 muscarinic receptor (read-out: % Max) it was 100 ± 5%; at m4 muscarinic receptor [11], 102 ± 3%.
For the molecule `Clc1cc(I)cc(Cl)c1NC1=NCCN1` [p-I-Clonidine], the “Max Response” value in experiment [3] is given as “+”.
Regarding `Nc1cc(Cl)c(NC2=NCCN2)c(Cl)c1` [p-NH2-Clonidine], the “Max Response” value in experiment [3] (α2-C2, Table 3, relative to other ligands at the receptor) is on record as “+”.
As to `CNC[C@H](O)c1cccc(O)c1` [phenylephrine], the induction of responses entry in the experiment on NIH 3T3 cells is “unable to induce responses”.
Consider Insulin, for which the EC50 on Insulin receptor (Table 2, read-out: Ligand EC50) was 0.08 ± 0.08 nM. The Rmax result in the experiment on Insulin receptor (relative to other clones) was “+”.
Regarding endothelin-3 [ET-3], in the experiment with NIH 3T3 cells, the induction of responses result was “unable to induce responses”.
With “substance P (RPKPQQFFGLM; ends and bridges not checked; UniProt P20366 58-68, looked up)”, in the experiment on NIH 3T3 cells, the induction of responses result is given as “unable to induce responses”.

Usually Ki stands for a measure of affinity in units of concentration, obtained from inhibition or displacement. Broadly, the EC50 is the midpoint of the concentration-response curve.
